Test results from patent US20120269815A1, “NEUROTROPHINS AND USES THEREOF” (Regents of the University of Minnesota, priority 2008, published 2012).
Entries after “also recorded” stand apart in the source; their conditions may differ. No end group written: not given here.

Legend:
[1] = test system: Cortical neurons and glia; assay: Glutamate-induced excitotoxicity in cultured cortical neurons; type: cell-based, mice; details: 500 μM glutamate, then 0.2-1.8 μM peptide for 24 hours
Protocol: To assess the trophic effect of TUF1 peptide on primary culture neurons, we assayed the effect of TUF1 supplementation on glutamate-induced excitotoxicity in neuronal cultures. Cortical neurons and glia were cultured from newborn mice for seven days. Cultures were then treated with 500 μM glutamate (diluted in N2tox solution, Invitrogen Corp., Carlsbad, Calif.) and incubated at 37° C. for ten minutes. Glutamate was removed from cultures by two washes with EBSS media (Invitrogen Corp., Carlsbad, Calif.). Cultures were then incubated in EBSS media supplemented with 0.0 μM, 0.2 μM, 0.4 μM, 0.9 μM, or 1.8 μM TUF1 peptide for 24 hours. Surviving neurons from cultures were manually counted by Trypan Blue exclusion using an inverted microscope. Values are means±SD, n=6-8/group.

[2] = test system: COS7 cells; assay: COS7 cell survival following serum deprivation (Trypan blue uptake); type: cell-based; details: 5 nM peptide
Protocol: To gain insight into the binding of TUF1[43-54] peptide and p75^NTR, serum deprivation was used as a stressor to COS7 cells transfected with pCMV-SPORT6-p75 expression vector. COS7 cells were seeded at 15,000 cells/well in 12-well plates, transfected with 300 ng pCMV-eGFP (control) or 300 ng pCMV-SPORT6-p75, and incubated overnight. Cells were then incubated in serum-free medium or serum-free medium supplemented with 5 nM TUF1[43-54]. Cells were assessed for Trypan blue dye uptake at 24, 48, and 72 hours.
Immediately after removing growth medium, cells were rinsed with PBS and incubated in 100 μl 0.4% Trypan blue dye diluted in PBS. Images of cells were captured at 10× magnification using an inverted microscope equipped with a CCD camera. Trypan blue-positive cells were counted using Adobe Photoshop CS3 (Adobe Systems Inc., San Jose, Calif.). Graphs and statistics were performed using Prism Graphpad 4.0 (GraphPad Software Inc., San Diego, Calif.).

[3] = test system: unknown receptor expressed in COS7 cell; assay: Fluorescence-labeled TUF1 peptide binding to control (pCMV-GFP) COS7 cells; details: labeled peptide 5 nM, COS7 cells transfected with pCMV-GFP
Protocol: COS7 cells were seeded at 10,000 cells/well onto a 18 mm coverslip in a 12-well plate. Cells were allowed to settle overnight in a cell culture incubator (NuAire NU-8600, NuAire, Inc., Plymouth, Minn.) set at 37° C. and 5% CO2. Cells were transfected with pCMV-eGFP (Clontech Laboratories, Inc., Mountain View, Calif.) or pCMV-SPORT6-p75 (ATCC) using Fugene HD (Roche Diagnostics Corp., Indianapolis, Ind.) and were incubated overnight. The binding assays were carried out according to Horton et al. with modifications. Synthetic TUF1 peptides (TUF1[43-54] (SEQ ID NO:1) and TUF1[24-40] (SEQ ID NO:3) were generated (via Sigma Genosys, Sigma-Aldrich Co. St. Louis, Mo.) and were conjugated per manufacturer's recommendation with DyLight 549 NHS Ester (Thermo Fisher Scientific, Waltham, Mass.), which have similar spectra to Cy3 dye. Unconjugated dye was removed with a dye removal column (Thermo Fisher Scientific, Waltham, Mass.). Labeled peptides were diluted to 5 nM in 0.15 M Sucrose/PBS and added (1.0 ml/well) to transfected COS7 cells. The binding reaction was incubated in the dark at room temperature for 90 minutes. Cells were rinsed thoroughly with PBS+0.05% Tween-20 to remove unbound peptide. Cells were then fixed with 4% Paraformaldehyde (5 minutes). […]

[4] = test system: GT1-1 cells; details: 24 hr serum deprivation, 3.6 μM peptide
Protocol: GT1-1 cell survival assays: GT1-1 cells are immortalized cell line derived from mouse embryonic hypothalamus (a gift from Dr. Richard Weiner, UCSF).
a) Suppression of TUF1 expression by RNAi GT1-1 cells were seeded at 100,000 cells/well in a 12-well plate (as described in Example 1) and incubated for 72 hours at 37° C. supplemented with 5% CO2. Fresh growth media were added for at least 1 hour before cells were transfected with negative control RNAi or TUF1-specific RNAi (150 picomoles diluted in OptiMEM, Stealth RNAi, Invitrogen Corp., Carlsbad, Calif.) using Fugene6 (1.5 μl/200 μl medium, Roche Diagnostics Corp., Indianapolis, Ind.) and incubated overnight. […] Cells were then lifted from the well by adding Trypsin-EDTA (Invitrogen Corp., Carlsbad, Calif.) and surviving cells were counted by Trypan Blue exclusion using a hemocytometer and an inverted microscope. […]
b) Repression of TUF1 activity by anti-TUF1 peptide antibody (IgG) GT1-1 cells were seeded at 100,000 cells/well and incubated for 72 hours as described above. […] Surviving cells were lifted from wells and counted as described in part (a). […]
Cells were treated with serum-free media supplemented with 0.0 μg/ml, 2.5 μg/ml (1.8 μM), or 5.0 μg/m (3.6 μM) TUF1 peptide. Surviving cells were counted at 24 hours, 48 hours, and 72 hours of incubation as described in part (a). […]

Sequence: AYKSYVRALPLL [TUF1[43-54]]
- neural excitotoxicity induced by glutamate [1]: reduces neural excitotoxicity induced by glutamate
- survival benefit of peptide in presence of p75^NTR ([2]; COS7 cells transfected with pCMV-SPORT6-p75, serum deprivation): removed the survival benefit
- cell survival / cell death following serum deprivation ([2]; Trypan blue-positive cells at 24, 48, 72 hours, control-transfected COS7 cells): promotes cell survival; also recorded: reduces in vitro cell death following serum deprivation
- binding to unknown receptor expressed in COS7 cell [3]: binds to an unknown receptor expressed in COS7 cell at a low level
- effect on cell survival [4]: no effect
